Results from the OPERA property sets (Mansouri et al. 2018).

First: CCCCNC(=O)C=Cc1ccc([N+](=O)[O-])o1
Second: CCCNC(=O)C=Cc1ccc([N+](=O)[O-])o1
The logP of the first is higher: 2.36 for the first, 1.86 for the second.

First: CC(C)CNC(=O)C=Cc1ccc([N+](=O)[O-])o1
Second: CCNC(=O)C=Cc1ccc([N+](=O)[O-])o1
The logP of the first is higher: 2.23 for the first, 1.39 for the second.

Going from C=Cc1ccc([N+](=O)[O-])o1 to O=[N+]([O-])c1ccc(C=CBr)o1, the logP rises from 1.61 to 2.45.

First: CCC(C)OC(=O)C=Cc1ccc([N+](=O)[O-])o1 (stereo unspecified)
Second: CC(C)OC(=O)C=Cc1ccc([N+](=O)[O-])o1
The logP of the first is higher: 3.09 for the first, 2.64 for the second.

Going from COC(=O)C(=Cc1ccc(Br)o1)[N+](=O)[O-] to COC(=O)C(=Cc1ccc(I)o1)[N+](=O)[O-], the logP rises from 2.74 to 3.

Compared with CCOC(=O)C(=Cc1ccc([N+](=O)[O-])o1)C(=O)OCC, CCOC(=O)C=Cc1ccc([N+](=O)[O-])o1 is lower in logP: 2.5 for the first, 2.1 for the second.

CCCOC(=O)C=Cc1ccc([N+](=O)[O-])o1 and CCCCOC(=O)C=Cc1ccc([N+](=O)[O-])o1 are within 0.2 log units of each other in logP: 2.67 for the first, 2.83 for the second.

First: CC(C)(C)OC(=O)C=Cc1ccc([N+](=O)[O-])o1
Second: CC(C)(C)NC(=O)C=Cc1ccc([N+](=O)[O-])o1
The logP of the first is higher: 3.06 for the first, 2.33 for the second.

First: COC(=O)C(=Cc1ccc(C(=O)OC)o1)[N+](=O)[O-]
Second: COC(=O)C(=Cc1ccc(C)o1)[N+](=O)[O-]
The logP of the first is lower: 1.87 for the first, 2.44 for the second.

CN(C)C(=O)C=Cc1ccc([N+](=O)[O-])o1 and O=C(O)C=Cc1ccc([N+](=O)[O-])o1 are within 0.2 log units of each other in logP: 0.82 for the first, 0.68 for the second.

First: CCCCCOC(=O)C=Cc1ccc([N+](=O)[O-])o1
Second: COC(=O)C=Cc1ccc([N+](=O)[O-])o1
The logP of the first is higher: 3.4 for the first, 1.65 for the second.

First: COC(=O)C(=Cc1ccco1)[N+](=O)[O-]
Second: COC(=O)C(=Cc1ccc([N+](=O)[O-])o1)[N+](=O)[O-]
The logP of the first is higher: 1.88 for the first, 1.6 for the second.

First: O=[N+]([O-])C=Cc1ccc([N+](=O)[O-])o1
Second: N#CC=Cc1ccc([N+](=O)[O-])o1
The logP of the first is higher: 1.3 for the first, 1.05 for the second.

First: CNC(=O)C=Cc1ccc([N+](=O)[O-])o1
Second: CCC(C)NC(=O)C=Cc1ccc([N+](=O)[O-])o1 (stereo unspecified)
The logP of the first is lower: 0.98 for the first, 2.28 for the second.

Compared with CC(C)COC(=O)C=Cc1ccc([N+](=O)[O-])o1, CC(C)(C)CNC(=O)C=Cc1ccc([N+](=O)[O-])o1 is lower in logP: 3.14 for the first, 2.61 for the second.

O=[N+]([O-])c1ccc(C=CS(=O)(=O)c2ccccc2)o1 gave a logP of 1.88.
